Test results reported in ChEMBL document CHEMBL1201862, “PubChem BioAssay data set” (2004).
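A five-concentration, 48-hour dose response in 96-well plates underlies each endpoint, interpolated linearly between surrounding concentrations. The concentration for 50% growth inhibition is given as GI50.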 Calls of active or inactive are those of the source. Cut-off read from the data, not from the text of the source: active = GI50 up to about 1.1 µM and inactive = higher. Square brackets hold non-standard residues; d marks the D form. Peptide text beside a SMILES is read from it. * marks the point of attachment. NMeV = CN[C@H](C(=O)O)C(C)C; X28 = COc1ccc(CN*)c(OC)c1; Octanoyl = CCCCCCCC(=O)*; dNMeA = CN[C@H](C)C(=O)O

Columns and labels:
Assay in all cases: inhibition of tumour cell growth, NCI panel, 48 h
[1] = test system: RXF 393
[2] = test system: K562
[3] = test system: SK-OV-3
[4] = test system: MOLT-4
[5] = test system: NCI/ADR-RES
[6] = test system: Malme-3M
[7] = test system: SN12C
[8] = test system: MCF7
[9] = test system: HOP-62
[10] = test system: DU-145
[11] = test system: NCI-H23
[12] = test system: LOX IMVI
[13] = test system: 786-0
[14] = test system: TK-10
[15] = test system: COLO 205
[16] = test system: U-251
[17] = test system: UACC-62
[18] = test system: HCT-15
[19] = test system: OVCAR-8
[20] = test system: SF-295

Row | SMILES | GI50 [1] | GI50 [2] | GI50 [3] | GI50 [4] | GI50 [5] | GI50 [6] | GI50 [7] | GI50 [8] | GI50 [9] | GI50 [10] | GI50 [11] | GI50 [12] | GI50 [13] | GI50 [14] | GI50 [15] | GI50 [16] | GI50 [17] | GI50 [18] | GI50 [19] | GI50 [20]
1 | O=C(NC1(c2cc3ccccc3s2)CCCCC1)C1CCC1 | > 100 µM (inactive) | > 100 µM (inactive) | > 100 µM (inactive) | > 100 µM (inactive) | > 100 µM (inactive) | > 100 µM (inactive) | > 100 µM (inactive) | > 100 µM (inactive) | > 100 µM (inactive) | > 100 µM (inactive) | > 100 µM (inactive) | > 100 µM (inactive) | > 100 µM (inactive) | > 100 µM (inactive) | > 100 µM (inactive) | > 100 µM (inactive) | > 100 µM (inactive) | > 100 µM | 66.4 µM (inactive) | > 100 µM (inactive)
2 | Cc1ccc([N+](=O)[O-])c2c(NCCNC(=O)Cn3ccnc3[N+](=O)[O-])ccnc12 | 1.42 µM (inactive) | 64.1 µM (inactive) | 21.6 µM (inactive) | > 100 µM (inactive) | > 100 µM (inactive) | 28.6 µM (inactive) | 38.3 µM (inactive) | 18.9 µM (inactive) | 20.7 µM (inactive) | 57.3 µM (inactive) | 54.2 µM (inactive) | 45.8 µM (inactive) | 34.8 µM (inactive) | 88.3 µM (inactive) | 41 µM (inactive) | 36.6 µM (inactive) | 22.7 µM (inactive) | > 100 µM | 31.3 µM (inactive) | 20.5 µM (inactive)
3 | C=C(CN(C)C)C(=O)c1ccc(C)cc1C | 4.51 µM (inactive) | 1.15 µM (inactive) | 18.5 µM (inactive) | 1.01 µM (active) | 7 µM (inactive) | 5.7 µM (inactive) | 11.8 µM (inactive) | 3.3 µM (inactive) | 32.2 µM (inactive) | 17.6 µM (inactive) | 10.6 µM (inactive) | 5.12 µM (inactive) | 5.19 µM (inactive) | 8.73 µM (inactive) | 3.38 µM (inactive) | 16.9 µM (inactive) | 10.5 µM (inactive) | 4.52 µM | 12.9 µM (inactive) | 16.3 µM (inactive)
4 | CCCCCCCC(=O)N[C@H](C(=O)N[C@H](C(=O)N(C)[C@H](C(=O)N1CCC[C@H]1C(=O)N(C)[C@H](C)C(=O)NCc1ccc(OC)cc1OC)C(C)C)C(C)C)C(C)C (Octanoyl-VV[NMeV]P[dNMeA]-X28) | 8.57 µM (inactive) | 5.62 µM (inactive) | 28.9 µM (inactive) | 14.2 µM (inactive) | 42.1 µM (inactive) | 8.17 µM (inactive) | 18 µM (inactive) | 7.53 µM (inactive) | 20.4 µM (inactive) | 25.3 µM (inactive) | 13.6 µM (inactive) | 12.2 µM (inactive) | 23.2 µM (inactive) | 22.3 µM (inactive) | 5.74 µM (inactive) | 4.79 µM (inactive) | 7.21 µM (inactive) | 21.5 µM | 5.58 µM (inactive) | 7.96 µM (inactive)
5 | CCOC(=O)C(Cl)(Cl)/S(=N\S(=O)(=O)c1ccccc1)NC(=O)c1ccccc1 (stereo not given) | > 100 µM (inactive) | > 100 µM (inactive) | > 100 µM (inactive) | > 100 µM (inactive) | > 100 µM (inactive) | > 100 µM (inactive) | > 100 µM (inactive) | > 100 µM (inactive) | > 100 µM (inactive) | > 100 µM (inactive) | > 100 µM (inactive) | > 100 µM (inactive) | > 100 µM (inactive) | > 100 µM (inactive) | > 100 µM (inactive) | > 100 µM (inactive) | > 100 µM (inactive) | > 100 µM | > 100 µM (inactive) | > 100 µM (inactive)
6 | O=c1cc(-c2ccccc2)[nH]c2ccc(N3CCCC3)cc12 | 0.0196 µM (active) | < 0.01 µM (active) | 0.0466 µM (active) | 0.0794 µM (active) | 0.0159 µM (active) | > 100 µM (inactive) | 0.0451 µM (active) | 4.58 µM (inactive) | 0.0163 µM (active) | 0.0459 µM (active) | 0.299 µM (active) | < 0.0137 µM (active) | < 0.0114 µM (active) | 5.62 µM (inactive) | 0.0196 µM (active) | 0.0102 µM (active) | < 0.01 µM (active) | 0.0743 µM | 0.0365 µM (active) | < 0.01 µM (active)
7 | CCOC(=O)c1sc2c(c1OC(=O)c1ccc(Cl)cc1Cl)c(=O)n(-c1ccccc1)c(=S)n2-c1ccccc1 | > 100 µM (inactive) | 3.75 µM (inactive) | 5.42 µM (inactive) | 3.17 µM (inactive) | 9.66 µM (inactive) | 22.9 µM (inactive) | 4.22 µM (inactive) | 24.5 µM (inactive) | 10 µM (inactive) | 31.1 µM (inactive) | 4.91 µM (inactive) | 20.8 µM (inactive) | 25.6 µM (inactive) | 17 µM (inactive) | 3.94 µM (inactive) | 5.21 µM (inactive) | 20 µM (inactive) | 5.08 µM | 6.11 µM (inactive) | 6.76 µM (inactive)
8 | Nc1ncnc2c1ccn2C1OC2COP(=O)(O)OC2C1O (stereo not given) | 0.212 µM (active) | 0.261 µM (active) | 0.197 µM (active) | 0.681 µM (active) | 0.565 µM (active) | 0.27 µM (active) | 0.207 µM (active) | 0.444 µM (active) | 0.501 µM (active) | 0.723 µM (active) | 0.885 µM (active) | 0.0735 µM (active) | 0.281 µM (active) | 0.25 µM (active) | 0.181 µM (active) | 0.31 µM (active) | 0.0914 µM (active) | 0.152 µM | 0.0773 µM (active) | 0.641 µM (active)
9 | Cn1c2ccccc2c(=NNc2ccc(C(=O)O)cc2)c2ccccc21 | 15.4 µM (inactive) | 6.79 µM (inactive) | 17.3 µM (inactive) | 11.3 µM (inactive) | 23.9 µM (inactive) | 21.1 µM (inactive) | 18.1 µM (inactive) | 10.4 µM (inactive) | 18.8 µM (inactive) | 19.5 µM (inactive) | 21.1 µM (inactive) | 10.6 µM (inactive) | 19.8 µM (inactive) | 21.3 µM (inactive) | 15.3 µM (inactive) | 11.1 µM (inactive) | 18.5 µM (inactive) | 18.8 µM | 14.8 µM (inactive) | 20.8 µM (inactive)
10 | O=C1CCC(c2ccccc2)(c2ccccc2)CC1 | > 100 µM (inactive) | 29.7 µM (inactive) | > 100 µM (inactive) | 30.6 µM (inactive) | 40 µM (inactive) | > 100 µM (inactive) | 38.1 µM (inactive) | 46 µM (inactive) | > 100 µM (inactive) | > 100 µM (inactive) | 57.7 µM (inactive) | > 100 µM (inactive) | > 100 µM (inactive) | 85.9 µM (inactive) | 27.9 µM (inactive) | > 100 µM (inactive) | > 100 µM (inactive) | 47.4 µM | > 100 µM (inactive) | > 100 µM (inactive)
11 | C=C1C(=O)O[C@H]2[C@H]1[C@H](OC(=O)/C(C)=C\C)C[C@]1(CO1)[C@@H]1[C@H](OC(C)=O)C=C(C)[C@]21O [EUPAROTIN ACETATE] | 10.8 µM (inactive) | 0.383 µM (active) | > 59.6 µM (inactive) | 5.18 µM (inactive) | 21.5 µM (inactive) | 13.5 µM (inactive) | 14 µM (inactive) | 6.79 µM (inactive) | 74 µM (inactive) | 15.4 µM (inactive) | 23.2 µM (inactive) | 12.7 µM (inactive) | 7.46 µM (inactive) | 7.73 µM (inactive) | 5.24 µM (inactive) | 21.9 µM (inactive) | 15.5 µM (inactive) | 13.3 µM | 30.8 µM (inactive) | > 83.9 µM (inactive)
12 | C=CCN(c1cc(OC)c2[nH]c(C(=O)OCC)c(C)c2c1[N+](=O)[O-])S(C)(=O)=O | 7.23 µM (inactive) | 15.1 µM (inactive) | 36.3 µM (inactive) | 12.6 µM (inactive) | 23.6 µM (inactive) | 15.7 µM (inactive) | 19.6 µM (inactive) | 22.4 µM (inactive) | 35.6 µM (inactive) | 24.7 µM (inactive) | 28.4 µM (inactive) | 19.3 µM (inactive) | 19 µM (inactive) | 54.1 µM (inactive) | 15.5 µM (inactive) | 16.1 µM (inactive) | 26.1 µM (inactive) | 25.6 µM | 28.6 µM (inactive) | 28.5 µM (inactive)
13 | CCN(CC)/[N+]([O-])=N/OS(=O)(=O)N(C)C | > 100 µM (inactive) | > 100 µM (inactive) | > 100 µM (inactive) | > 100 µM (inactive) | > 100 µM (inactive) | > 100 µM (inactive) | > 100 µM (inactive) | > 100 µM (inactive) | > 100 µM (inactive) | > 100 µM (inactive) | > 100 µM (inactive) | > 100 µM (inactive) | > 100 µM (inactive) | > 100 µM (inactive) | > 100 µM (inactive) | > 100 µM (inactive) | > 100 µM (inactive) | > 100 µM | > 100 µM (inactive) | > 100 µM (inactive)
14 | Cc1nn(-c2ccccn2)c2c1C(SC#N)=C(C=O)CC2 | 5.16 µM (inactive) | 8.07 µM (inactive) | 19.3 µM (inactive) | 2.57 µM (inactive) | 20.1 µM (inactive) | 18.3 µM (inactive) | 18.5 µM (inactive) | 10.5 µM (inactive) | 9.38 µM (inactive) | 14.9 µM (inactive) | 16.4 µM (inactive) | 15.7 µM (inactive) | 12.4 µM (inactive) | 1.67 µM (inactive) | 10.5 µM (inactive) | 15.5 µM (inactive) | 5.71 µM (inactive) | 17.4 µM | 15.9 µM (inactive) | 30.3 µM (inactive)
